Data on 29 molecules can be found in patent publication US20120202794A1 (priority 2011, published 2012).

One data set concerns HCV Replicon 1b. The data set is described as follows: HCV inhibition assay, HCV replicon 1b (Clone A or ET-lunet cells; RT-PCR or luciferase reporter). The class given is cell-based. Conditions: Hepatitis C virus, 96 h, HCV replicon 1b; 4 days incubation; read-out: Replicon 1b potency EC90. As to the method:
HCV inhibition assay. Clone A or ET-lunet cells were seeded at a density of 1500 or 3000 cells per well in a 96-well plate, respectively. Test compounds serially diluted in culture medium without G418 were added to cells so that the final DMSO concentration was 0.5%. Plates were incubated at 37° C. in a 5% CO2 atmosphere for 4 days. Inhibition of HCV RNA replication was determined by real time PCR (RT-PCR) or by measuring the levels of luminescence expressed via the luciferase reporter gene encoded within the ET replicon. Briefly, for the RT-PCR assay, total RNA was extracted using the RNeasy-96 kit as recommended by the manufacturer (Qiagen, Valencia, Calif.), reversed transcribed into cDNA, and amplified using primer and probe mix for HCV 5′-NTR RNA and human ribosomal RNA (rRNA) in a one-step RT-PCR reaction as described previously (50). A relative quantification method was used to determine the extent of inhibition. The threshold cycle (Ct) of rRNA was subtracted from the Ct of HCV RNA (ΔCt). The average ΔCt of the DMSO cell controls was then subtracted from the ΔCt of the compound treated sample (ΔΔCt). Percent inhibition was determined by using the following equation: %=(1−(2^−ΔΔC^t))×100. For the luciferase-based replicon assay, luminescence was measured by using a Victor3 plate reader (Perkin-Elmer, Boston, Mass.) following the addition of Bright-Glo reagent as recommended by the manufacturer (Promega, Madison, Wis.). Percent inhibition of HCV replication was determined by comparing the change in luminescence of the drug treated wells versus the DMSO cell controls. EC50 and EC90 values, the concentrations at which 50% and 90% inhibition were achieved, were determined using the GraphPad Prism software (San Diego, Calif.).
(Replicon systems follow genome replication, usually without infectious particles.)

Data set [1] can be described thus: Cell cytotoxicity assay (MTS), CC90 as reported in Table 1, cell line not stated. In kind it is cell-based. Conditions: human, cell line not given. As to the method: Cell cytotoxicity assays. Each compound (serially diluted from 100 μM) was added to Huh7 (2×10^3 cells/well), HepG2 (2×10^3 cells/well), BxPC3 (2×10^3 cells/well), or CEM (5×10^3 cells/well) cells and allowed to incubate for 8 days at 37° C. A medium only control was used to determine the minimum absorbance value […]. At the end of the growth period, MTS dye from the CellTiter 96 Aqueous One Solution Cell Proliferation Assay kit (Promega) was added to each well and the plate was incubated for an additional 2 hours. The absorbance at 490 nm was read with a Victor3 plate reader (Perkin Elmer) using the medium only control wells as blanks. The 90% inhibition value (CC90) was determined by comparing the absorbance in wells containing cells and test compound to untreated cell control wells.

Regarding `CC(C)C[C@H]1CN(C(=O)c2cc(-c3cccc(Cl)c3)on2)[C@@H](CC(C)C)C(=O)N1` [Compound 129], in the data set with HCV Replicon 1b, the EC90 was 2930 nM. The molecule also came in with a CC90 at 8 days in data set [1] of over 10000 nM.
`CC(C)C[C@H]1C(=O)N[C@@H](C(C)C)CN1C(=O)c1noc(-c2ccc(F)cc2)n1` [Compound 295, (3S,6S)-4-(5-(4-Fluorophenyl)-1,2,4-oxadiazole-3-carbonyl)-3-isobutyl-6-isopropylpiperazin-2-one]: the EC90 in the data set with HCV Replicon 1b came out at 320 nM. This molecule also yielded a CC90 at 8 days in data set [1] (MTS assay, 8 days incubation) of over 10000 nM.
As for `CC(C)C[C@H]1CN(C(=O)[C@@H]2C[C@H]2c2ccc(C(C)(C)C)cc2)[C@@H](CC(C)C)C(=O)N1` [Compound 249, (3S,6S)-4-[(1R,2R)-2-(4-tert-Butyl-phenyl)-cyclopropanecarbonyl]-3,6-diisobutyl-piperazin-2-one], the 90% effect concentration (EC90) in the data set on HCV Replicon 1b amounted to 750 nM. Also, in data set [1], the CC90 at 8 days was over 10000 nM.
As for `CC(C)C[C@H]1C(=O)N[C@@H](C2CCCC2)CN1C(=O)c1cc(-c2ccc(F)c(F)c2)on1` [Compound 186], the EC90 in the data set on HCV Replicon 1b was 260 nM. The CC90 at 8 days in data set [1] is over 10000 nM.
With `CC(C)C[C@H]1C(=O)N[C@@H](c2cnco2)CN1C(=O)/C=C/c1ccc(F)cc1F` [Compound 520, (3S,6R)-4-((E)-3-(2,4-difluorophenyl)acryloyl)-3-isobutyl-6-(oxazol-5-yl)piperazin-2-one], the concentration for an effect of 90% (EC90) in the data set on HCV Replicon 1b amounted to 470 nM. The same molecule showed a CC90 at 8 days in data set [1] (MTS assay, 8 days incubation) of over 10000 nM.
In the case of `CC(C)C[C@H]1C(=O)N[C@@H](c2ccccc2)CN1C(=O)[C@@H]1C[C@H]1c1ccc(Cl)cc1F` [Compound 255, (3S,6S)-4-[(1R,2R)-2-(4-Chloro-2-fluoro-phenyl)-cyclopropanecarbonyl]-3-isobutyl-6-phenyl-piperazin-2-one], the 90% effect concentration (EC90) with HCV Replicon 1b is 360 nM. This molecule displayed a CC90 at 8 days in data set [1] of over 10000 nM.
For the molecule `C/C(=C\c1ccccc1)C(=O)N1C[C@H](CC(C)C)NC(=O)[C@@H]1CC(C)C` [Compound 78], in the data set with HCV Replicon 1b, the EC90 worked out at 9930 nM. For the same molecule, in data set [1], the CC90 at 8 days was over 10000 nM.
Regarding `CC(C)C[C@H]1CN(C(=O)[C@@H]2C[C@H]2c2ccc(Br)cc2)[C@@H](CC(C)C)C(=O)N1` [Compound 329, (3S,6S)-4-((1R,2R)-2-(4-bromophenyl)cyclopropanecarbonyl)-3,6-diisobutylpiperazin-2-one], the 90% effect concentration (EC90) with HCV Replicon 1b worked out at 520 nM. In addition, the CC90 at 8 days in data set [1] (MTS assay, 8 days incubation) is over 10000 nM.
The corresponding values for `CSc1ccc(/C=C/C(=O)N2C[C@H](CC(C)C)NC(=O)[C@@H]2CC(C)C)cc1` [Compound 268, (3S,6S)-3,6-diisobutyl-4-((E)-3-(4-methylsulfanyl-phenyl)acryloyl)piperazin-2-one] are 9800 nM and over 10000 nM.
As for `CC(C)C[C@H]1CN(C(=O)c2cc(-c3ccccc3Cl)on2)[C@@H](CC(C)C)C(=O)N1` [Compound 274, (3S,6S)-4-(5-(2-chlorophenyl)isoxazole-3-carbonyl)-3,6-diisobutylpiperazin-2-one], the EC90 in the data set with HCV Replicon 1b amounted to 5950 nM. The molecule also showed a CC90 at 8 days in data set [1] (MTS assay, 8 days incubation) of over 10000 nM.
For `CC(C)C[C@H]1CN(C(=O)c2cc(-c3cccc(F)c3)on2)[C@@H](CC(C)C)C(=O)N1` [Compound 128], the 90% effect concentration (EC90) with HCV Replicon 1b is 840 nM. In data set [1], this molecule yielded a CC90 at 8 days of over 10000 nM.
As for `CC(C)C[C@H]1C(=O)N[C@@H](C(C)C)CN1C(=O)[C@@H]1C[C@H]1c1ccccc1` [Compound 233, (3S,6S)-3-isobutyl-6-isopropyl-4-((1R,2R)-2-phenylcyclopropanecarbonyl)piperazin-2-one], the EC90 with HCV Replicon 1b amounted to 930 nM. The CC90 at 8 days in data set [1] was over 10000 nM.
Regarding `CC(C)C[C@H]1CN(Cc2cc(-c3ccccc3)on2)[C@@H](CC(C)C)C(=O)N1` [Compound 195], in the data set with HCV Replicon 1b, the EC90 was 750 nM. In addition, the CC90 at 8 days in data set [1] was over 10000 nM.
For `CCC(C)[C@H]1CN(Cc2cc(-c3ccc(F)cc3)on2)[C@@H](CC(C)C)C(=O)N1` (stereo partly drawn) [Compound 214], in that order: 720 nM and over 10000 nM.
In the case of `CC(C)C[C@H]1C(=O)N[C@@H](C2CCCC2)CN1C(=O)[C@@H]1C[C@H]1c1ccc(Cl)cc1F` [Compound 253, (3S,6S)-4-[(1R,2R)-2-(4-Chloro-2-fluoro-phenyl)-cyclopropanecarbonyl]-6-cyclopentyl-3-isobutyl-piperazin-2-one], the EC90 in the data set with HCV Replicon 1b came to 500 nM. The molecule further came in with a CC90 at 8 days in data set [1] of over 10000 nM.
`CC(C)C[C@H]1C(=O)N[C@@H](C2CCCC2)CN1C(=O)c1cc(-c2ccc(Cl)cc2)on1` [Compound 173]: in the data set with HCV Replicon 1b, the 90% effect concentration (EC90) turned out to be 120 nM. Further, the CC90 at 8 days in data set [1] was over 10000 nM.
As for `CC(C)C[C@H]1C(=O)N[C@@H](c2ccccc2F)CN1C(=O)[C@@H]1C[C@H]1c1ccccc1` [Compound 357, (3S,6S)-6-(2-fluorophenyl)-3-isobutyl-4-((1R,2R)-2-phenylcyclopropanecarbonyl)-piperazin-2-one], the concentration for an effect of 90% (EC90) in the data set with HCV Replicon 1b was 520 nM. Also, the CC90 at 8 days in data set [1] (MTS assay, 8 days incubation) was over 10000 nM.
Regarding `CC(C)C[C@H]1CN(Cc2cc(-c3cccs3)on2)[C@@H](CC(C)C)C(=O)N1` [Compound 202, (3S,6S)-3,6-Diisobutyl-4-((5-(thiophen-2-yl)isoxazol-3-yl)methyl)piperazin-2-one], in the data set on HCV Replicon 1b, the EC90 is 880 nM. The CC90 at 8 days in data set [1] was over 10000 nM.
The corresponding values for `CC(C)C[C@H]1C(=O)N[C@@H](c2ccccc2)CN1C(=O)c1cc(-c2ccc(F)cc2)no1` [Compound 145] are 230 nM and over 10000 nM.
As to `CC(C)C[C@H]1C(=O)N[C@@H](C2CCCCC2)CN1C(=O)[C@@H]1C[C@H]1c1ccc(C(C)(C)C)cc1` [Compound 328, (3S,6S)-4-((1R,2R)-2-(4-(tert-butyl)phenyl)cyclopropanecarbonyl)-6-cyclohexyl-3-isobutylpiperazin-2-one], the EC90 with HCV Replicon 1b was determined as 2430 nM. This molecule returned a CC90 at 8 days in data set [1] (MTS assay, 8 days incubation) of over 10000 nM.
In the case of `CCC[C@H]1CN(Cc2cc(-c3ccc(F)cc3)on2)[C@@H](CC(C)C)C(=O)N1` [Compound 206, (3S,6S)-4-((5-(4-fluorophenyl)isoxazol-3-yl)methyl)-3-isobutyl-6-propylpiperazin-2-one], the EC90 in the data set on HCV Replicon 1b is 210 nM. Also, in data set [1], the CC90 at 8 days is over 10000 nM.
As to `CCC[C@H]1CN(C(=O)c2nc(-c3ccccc3)no2)[C@@H](CC(C)C)C(=O)N1` [Compound 150], the 90% effect concentration (EC90) in the data set with HCV Replicon 1b was 590 nM. In data set [1], this molecule had a CC90 at 8 days of over 10000 nM.
Turning to `CCC[C@H]1CN(C(=O)[C@@H]2C[C@H]2c2ccc(C(C)(C)C)cc2)[C@@H](CC(C)C)C(=O)N1` [Compound 334, (3S,6S)-4-((1R,2R)-2-(4-(tert-butyl)phenyl)cyclopropanecarbonyl)-3-isobutyl-6-propyl-pylpiperazin-2-one], the 90% effect concentration (EC90) in the data set on HCV Replicon 1b worked out at 900 nM. Also, the CC90 at 8 days in data set [1] (MTS assay, 8 days incubation) was over 10000 nM.
As for `CC(C)C[C@H]1C(=O)N[C@@H](CC2CC2)CN1C(=O)c1cc(-c2ccc(Cl)cc2)on1` [Compound 166], the EC90 in the data set with HCV Replicon 1b amounted to 360 nM. In data set [1], this molecule showed a CC90 at 8 days of over 10000 nM.
Regarding `CCC[C@H]1C(=O)N[C@@H](c2cccs2)CN1C(=O)[C@@H]1C[C@H]1c1ccc(F)cc1` [Compound 495, (3S,6R)-4-((1R,2R)-2-(4-fluorophenyl)cyclopropanecarbonyl)-3-propyl-6-(thiophen-2-yl)piperazin-2-one], the EC90 in the data set with HCV Replicon 1b amounted to 290 nM. This molecule also displayed a CC90 at 8 days in data set [1] (MTS assay, 8 days incubation) of over 10000 nM.
For `CC(C)C[C@H]1C(=O)N[C@@H](c2cccs2)CN1Cc1cc(-c2ccc(F)cc2)on1` [Compound 435, (3S,6R)-4-((5-(4-fluorophenyl)isoxazol-3-yl)methyl)-3-isobutyl-6-(thiophen-2-yl)piperazin-2-one], in that order: 260 nM and over 10000 nM.
As for `CC(C)C[C@H]1CN(C(=O)C#Cc2cccnc2)[C@@H](CC(C)C)C(=O)N1` [Compound 262, (3S,6S)-3,6-diisobutyl-4-(3-(pyridin-3-yl)propioloyl)piperazin-2-one], in the data set with HCV Replicon 1b, the concentration for an effect of 90% (EC90) is over 10000 nM. The CC90 at 8 days in data set [1] (MTS assay, 8 days incubation) is over 10000 nM.
With `CCC[C@H]1CN(C(=O)c2cc(-c3ccc(F)c(F)c3)on2)[C@@H](CC(C)C)C(=O)N1` [Compound 184], the EC90 in the data set with HCV Replicon 1b was 140 nM. This molecule gave a CC90 at 8 days in data set [1] of over 10000 nM.
Turning to `CC(C)C[C@H]1C(=O)N[C@@H](C2CCCC2)CN1C(=O)[C@@H]1C[C@H]1c1ccc(Br)cc1` [Compound 332, (3S,6S)-6-cyclopentyl-4-((1R,2R)-2-(4-bromophenyl)cyclopropanecarbonyl)-3-isobutylpiperazin-2-one], the 90% effect concentration (EC90) in the data set on HCV Replicon 1b is 1310 nM.

A word on the EC90: it is the point of the concentration-response curve where the effect stands at 90%.
